US4684664A, “Derivatives of β-(4-isocyano-1,2,3,4-diepoxycyclopentyl) acrylic acid” (Kureha Kagaku Kogyo Kabushiki Kaisha, priority 1984, dated 1987)
In brackets after ≈: the same amount, converted by molar mass.

Assays:
[1] = tested on: Staphylococcus aureus MS 353; test: Antibacterial activity, agar-dilution MIC, organism No. 3; format: cell-based; settings: Staphylococcus aureus, MS353; Organism No. 3, bouillon-agar; read-out: Minimum Inhibitory Concentration
Procedure, shortened: (§1)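 Minimum inhibitory concentration determined on solid bouillon agar by the agar-dilution technique, with values stated as μg/ml.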

[2] = tested on: Streptococcus pyogenes IFO 3340; test: Antibacterial activity, agar-dilution MIC, organism No. 26; format: cell-based; settings: Streptococcus pyogenes, IFO3340; Organism No. 26, bouillon-agar; read-out: Minimum Inhibitory Concentration
Procedure, shortened: as §1

[3] = tested on: Proteus morganii IFO 3848; test: Antibacterial activity, agar-dilution MIC, organism No. 18; format: cell-based; settings: Morganella morganii, IFO3848; Organism No. 18, bouillon-agar; read-out: Minimum Inhibitory Concentration
Procedure, shortened: as §1

[4] = tested on: Enterobacter aerogenes ATCC 13048; test: Antibacterial activity, agar-dilution MIC, organism No. 23; format: cell-based; settings: Klebsiella aerogenes, ATCC13048; Organism No. 23, bouillon-agar; read-out: Minimum Inhibitory Concentration
Procedure, shortened: as §1

[5] = tested on: Candida albicans IAM 4905; test: Antifungal activity, agar-dilution MIC, organism No. 29; format: cell-based; settings: Candida albicans, IAM4905; Organism No. 29, bouillon-agar; read-out: Minimum Inhibitory Concentration
Procedure, shortened: as §1

[6] = tested on: Pseudomonas aeruginosa NCTC 10490; test: Antibacterial activity, agar-dilution MIC, organism No. 16; format: cell-based; settings: Pseudomonas aeruginosa, NCTC10490; Organism No. 16, bouillon-agar; read-out: Minimum Inhibitory Concentration
Procedure, shortened: as §1

[7] = tested on: Klebsiella pneumoniae PCI-602; test: Antibacterial activity, agar-dilution MIC, organism No. 7; format: cell-based; settings: Klebsiella pneumoniae, PCI602; Organism No. 7, bouillon-agar; read-out: Minimum Inhibitory Concentration
Procedure, shortened: as §1

[8] = tested on: Staphylococcus aureus Terajima; test: Antibacterial activity, agar-dilution MIC, organism No. 2; format: cell-based; settings: Staphylococcus aureus; Organism No. 2, bouillon-agar; read-out: Minimum Inhibitory Concentration
Procedure, shortened: as §1

[9] = tested on: Enterobacter cloacae 963; test: Antibacterial activity, agar-dilution MIC, organism No. 24; format: cell-based; settings: Enterobacter cloacae, 963; Organism No. 24, bouillon-agar; read-out: Minimum Inhibitory Concentration
Procedure, shortened: as §1

[10] = tested on: Micrococcus luteus ATCC 9341; test: Antibacterial activity, agar-dilution MIC, organism No. 25; format: cell-based; settings: Micrococcus luteus, ATCC9341; Organism No. 25, bouillon-agar; read-out: Minimum Inhibitory Concentration
Procedure, shortened: as §1

[11] = tested on: Proteus rettgeri IFO 3850; test: Antibacterial activity, agar-dilution MIC, organism No. 22; format: cell-based; settings: Providencia rettgeri, IFO3850; Organism No. 22, bouillon-agar; read-out: Minimum Inhibitory Concentration
Procedure, shortened: as §1

[12] = tested on: Pseudomonas aeruginosa PAO 1; test: Antibacterial activity, agar-dilution MIC, organism No. 17; format: cell-based; settings: Pseudomonas aeruginosa, PAO1; Organism No. 17, bouillon-agar; read-out: Minimum Inhibitory Concentration
Procedure, shortened: as §1

[13] = tested on: Salmonella typhi 901; test: Antibacterial activity, agar-dilution MIC, organism No. 9; format: cell-based; settings: Salmonella enterica, TYPHI, read-out: Minimum Inhibitory Concentration
Procedure, shortened: as §1

[14] = tested on: Proteus mirabilis IFO 3849; test: Antibacterial activity, agar-dilution MIC, organism No. 19; format: cell-based; settings: Proteus mirabilis, IFO3849; Organism No. 19, bouillon-agar; read-out: Minimum Inhibitory Concentration
Procedure, shortened: as §1

[15] = tested on: Aspergillus niger IFO 6342; test: Antifungal activity, agar-dilution MIC, organism No. 30; format: cell-based; settings: Aspergillus niger, IFO6342; Organism No. 30, bouillon-agar; read-out: Minimum Inhibitory Concentration
Procedure, shortened: as §1

[16] = tested on: Salmonella paratyphi-A 1015; test: Antibacterial activity, agar-dilution MIC, organism No. 10; format: cell-based; settings: Salmonella enterica, PARATYPHI, read-out: Minimum Inhibitory Concentration
Procedure, shortened: as §1

[17] = tested on: Salmonella enteritidis G 14; test: Antibacterial activity, agar-dilution MIC, organism No. 12; format: cell-based; settings: Salmonella enterica, ENTERITIDIS; Organism No. 12, bouillon-agar; read-out: Minimum Inhibitory Concentration
Procedure, shortened: as §1

[18] = tested on: Salmonella typhimurium IID 971; test: Antibacterial activity, agar-dilution MIC, organism No. 8; format: cell-based; settings: Salmonella enterica; Organism No. 8, bouillon-agar; read-out: Minimum Inhibitory Concentration
Procedure, shortened: as §1

[19] = tested on: Staphylococcus aureus FDA 209PJc-1; test: Antibacterial activity, agar-dilution MIC, organism No. 1; format: cell-based; settings: Staphylococcus aureus, FDA209PJC1; Organism No. 1, bouillon-agar; read-out: Minimum Inhibitory Concentration
Procedure, shortened: as §1

[20] = tested on: Serratia marcescens IAM 1184; test: Antibacterial activity, agar-dilution MIC, organism No. 13; format: cell-based; settings: Serratia marcescens, IAM1184; Organism No. 13, bouillon-agar; read-out: Minimum Inhibitory Concentration
Procedure, shortened: as §1

[21] = tested on: Salmonella shottmuelleri 8006; test: Antibacterial activity, agar-dilution MIC, organism No. 11; format: cell-based; settings: Salmonella, 8006; Organism No. 11, bouillon-agar; read-out: Minimum Inhibitory Concentration
Procedure, shortened: as §1

[22] = tested on: Streptococcus faecium IFO 3826; test: Antibacterial activity, agar-dilution MIC, organism No. 27; format: cell-based; settings: Enterococcus faecium, IFO3826; Organism No. 27, bouillon-agar; read-out: Minimum Inhibitory Concentration
Procedure, shortened: as §1

[23] = tested on: Proteus vulgaris OX-19; test: Antibacterial activity, agar-dilution MIC, organism No. 20; format: cell-based; settings: Proteus vulgaris, OX19; Organism No. 20, bouillon-agar; read-out: Minimum Inhibitory Concentration
Procedure, shortened: as §1

[24] = tested on: Bacillus subtilis ATCC 6633; test: Antibacterial activity, agar-dilution MIC, organism No. 14; format: cell-based; settings: Bacillus subtilis, ATCC6633; Organism No. 14, bouillon-agar; read-out: Minimum Inhibitory Concentration
Procedure, shortened: as §1

[25] = tested on: Mycoplasma pneumoniae IID817; test: Antimycoplasmal activity, MIC by phenol red colour change, organism No. 28; format: cell-based; settings: Mycoplasma, IID817; Organism No. 28, PPLO broth + 1% glucose, 37° C.; read-out: Minimum Inhibitory Concentration (MIC)
Description: Mycoplasma pneumoniae IID817 was used as the test microorganism in a culture medium prepared by adding 1% of glucose to "PPLO broth (manufactured by Difco Co.) liquid culture medium" at 37° C. with phenol red as an indicator, thereby culturing the test microorganism.

[26] = Stability in a non-solvent state; format: physicochemical
[27] = tested on: Proteus vulgaris HX-19; test: Antibacterial activity, agar-dilution MIC, organism No. 21; format: cell-based; settings: Proteus vulgaris, HX19; Organism No. 21, bouillon-agar; read-out: Minimum Inhibitory Concentration
Procedure, shortened: as §1

[28] = tested on: Streptococcus pyogenes Cook; test: Antibacterial activity, agar-dilution MIC, organism No. 4; format: cell-based; settings: Streptococcus pyogenes; Organism No. 4, bouillon-agar; read-out: Minimum Inhibitory Concentration
Procedure, shortened: as §1

[29] = tested on: Escherichia coli K12 C600 IAM 1264; test: Antibacterial activity, agar-dilution MIC, organism No. 6; format: cell-based; settings: Escherichia coli, IAM1264; Organism No. 6, bouillon-agar; read-out: Minimum Inhibitory Concentration
Procedure, shortened: as §1

[30] = tested on: Escherichia coli NIHJ-JC-2; test: Antibacterial activity, agar-dilution MIC, organism No. 5; format: cell-based; settings: Escherichia coli, NIHJJC2; Organism No. 5, bouillon-agar; read-out: Minimum Inhibitory Concentration
Procedure, shortened: as §1

[31] = tested on: Pseudomonas aeruginosa IFO 3445; test: Antibacterial activity, agar-dilution MIC, organism No. 15; format: cell-based; settings: Pseudomonas aeruginosa, IFO3445; Organism No. 15, bouillon-agar; read-out: Minimum Inhibitory Concentration
Procedure, shortened: as §1

| SMILES | MIC [1] [µg/mL] | MIC [2] [µg/mL] | MIC [3] [µg/mL] | MIC [4] [µg/mL] | MIC [5] [µg/mL] | MIC [6] [µg/mL] | MIC [7] [µg/mL] | MIC [8] [µg/mL] | MIC [9] [µg/mL] | MIC [10] [µg/mL] | MIC [11] [µg/mL] | MIC [12] [µg/mL] | MIC [13] [µg/mL] | MIC [14] [µg/mL] | MIC [15] [µg/mL] | MIC [16] [µg/mL] | MIC [17] [µg/mL] | MIC [18] [µg/mL] | MIC [19] [µg/mL] | MIC [20] [µg/mL] | also measured |
| --- | --- | --- | --- | --- | --- | --- | --- | --- | --- | --- | --- | --- | --- | --- | --- | --- | --- | --- | --- | --- | --- |
| [C-]#[N+]C12CC3(/C=C/C(=O)OCC)OC3C1O2 (stereo not drawn) [Compound No. 2, ethyl β-substituted acrylate] | 12.5 (≈ 56.5 µM) | 100 (≈ 452 µM) | 6.25 (≈ 28.3 µM) | > 200 | 3.13 (≈ 14.1 µM) | > 200 | 6.25 (≈ 28.3 µM) | 12.5 (≈ 56.5 µM) | > 200 | 1.56 (≈ 7.05 µM) | > 200 | > 200 | 6.25 (≈ 28.3 µM) | 25 (≈ 113 µM) | 12.5 (≈ 56.5 µM) | 6.25 (≈ 28.3 µM) | 6.25 (≈ 28.3 µM) | 25 (≈ 113 µM) | 12.5 (≈ 56.5 µM) | > 200 | MIC [21]: 6.25 µg/mL (≈ 28.3 µM); MIC [22]: 12.5 µg/mL (≈ 56.5 µM); MIC [23]: 6.25 µg/mL (≈ 28.3 µM); MIC [24]: 50 µg/mL (≈ 226 µM); MIC [25]: < 0.2 µg/mL; stability (in words) [26]: decomposing and colouring tendency in a non-solvent state; MIC [27]: 0.2 µg/mL (≈ 0.904 µM); MIC [28]: > 200 µg/mL; MIC [29]: 25 µg/mL (≈ 113 µM); MIC [30]: 50 µg/mL (≈ 226 µM); MIC [31]: > 200 µg/mL |
| [C-]#[N+]C12CC3(/C=C/C(=O)OCc4ccccc4)OC3C1O2 (stereo not drawn) [Compound No. 10, benzyl β-substituted acrylate] | 0.39 (≈ 1.38 µM) | 3.13 (≈ 11 µM) | 0.39 (≈ 1.38 µM) | > 100 | 0.8 (≈ 2.82 µM) | > 100 | < 0.1 | 1.56 (≈ 5.51 µM) | 50 (≈ 177 µM) | < 0.1 | 6.25 (≈ 22.1 µM) | > 100 | 0.78 (≈ 2.75 µM) | 3.13 (≈ 11 µM) | 1.56 (≈ 5.51 µM) | 0.78 (≈ 2.75 µM) | 3.13 (≈ 11 µM) | 3.13 (≈ 11 µM) | 0.39 (≈ 1.38 µM) | 12.5 (≈ 44.1 µM) | MIC [21]: < 0.1 µg/mL; MIC [22]: 1.56 µg/mL (≈ 5.51 µM); MIC [23]: < 0.1 µg/mL; MIC [24]: 0.78 µg/mL (≈ 2.75 µM); MIC [25]: < 0.2 µg/mL; stability (in words) [26]: decomposed and coloured when left in a non-solvent state; MIC [27]: < 0.1 µg/mL; MIC [28]: 3.13 µg/mL (≈ 11 µM); MIC [29]: 3.13 µg/mL (≈ 11 µM); MIC [30]: 6.25 µg/mL (≈ 22.1 µM); MIC [31]: > 100 µg/mL |
